In this test the target is T1, PADI4 (Homo sapiens, UniProt Q9UM07).
T1 construct: His6; made in house
In words: Surface plasmon resonance (SPR), single cycle kinetics. It counts as binding. The settings on record: for Ki: k-1/k+1. An outline of the steps:
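Biotinylated His-PADI4 captured on CAP chip (~3000 RU); peptides as 5-point 3-fold series in HEPES, 150 mM NaCl, 10 mM CaCl2, 0.1% DMSO, pH 7.5, triplicate. Warhead peptides fitted two-state (k-2 = 0; Ki = k-1/k+1, kinact = k+2); others 1:1.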

Setting [1] is: each replicate, read-out: k2 / kinact.
Setting [2] is: two-state reaction model, k+2, read-out: SPR kinact (converted).

Data on two compounds can be found in PMC11659602, “Discovering covalent cyclic peptide inhibitors of peptidyl arginine deiminase 4 (PADI4) using mRNA-display with a genetically encoded electrophilic warhead” (Communications Chemistry, 2024).

Like-named read-outs stand apart in the source and are kept apart here. Where a SMILES comes first, the peptide text is derived from it. Bridges are numbered along the chain shown (N, C = ends). [ ]: non-standard residue; d: D form. Orn(fluoroacetimidoyl) = N=C(CF)NCCC[C@H](N)C(=O)O

T1 sequence (Q9UM07 whole entry): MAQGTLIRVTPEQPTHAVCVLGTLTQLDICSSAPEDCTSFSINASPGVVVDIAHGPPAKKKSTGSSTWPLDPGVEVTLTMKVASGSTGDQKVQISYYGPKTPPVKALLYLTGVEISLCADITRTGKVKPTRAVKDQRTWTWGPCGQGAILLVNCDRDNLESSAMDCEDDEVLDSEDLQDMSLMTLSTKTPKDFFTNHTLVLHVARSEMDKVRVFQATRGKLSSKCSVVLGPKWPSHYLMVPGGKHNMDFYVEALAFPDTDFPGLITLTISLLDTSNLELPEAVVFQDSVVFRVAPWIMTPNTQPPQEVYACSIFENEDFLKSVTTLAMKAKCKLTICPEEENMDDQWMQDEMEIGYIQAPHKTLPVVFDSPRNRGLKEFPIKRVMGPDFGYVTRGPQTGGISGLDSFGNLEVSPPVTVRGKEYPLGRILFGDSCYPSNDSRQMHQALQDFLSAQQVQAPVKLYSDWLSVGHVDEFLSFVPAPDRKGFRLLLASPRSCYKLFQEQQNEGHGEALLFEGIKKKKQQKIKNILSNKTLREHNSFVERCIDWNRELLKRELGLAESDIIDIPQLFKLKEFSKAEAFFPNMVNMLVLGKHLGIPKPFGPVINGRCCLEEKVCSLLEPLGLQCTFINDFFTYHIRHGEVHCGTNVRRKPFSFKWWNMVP

Turning to `CC(C)C[C@@H]1NC(=O)[C@H](CCCCN)NC(=O)[C@H](CO)NC(=O)[C@H](CO)NC(=O)[C@H](Cc2ccc(O)cc2)NC(=O)[C@H](Cc2c[nH]cn2)NC(=O)[C@H](CCCNC(=N)CF)NC(=O)[C@H](CC(=O)O)NC(=O)[C@H](CC(C)C)NC(=O)[C@@H](Cc2ccc(O)cc2)NC(=O)CSC[C@@H](C(=O)NCC(N)=O)NC(=O)[C@H](Cc2ccc(O)cc2)NC1=O` [cP4_15, yLD(2)HYSSKLYCG] ({CH2CO}-[dY]LD[Orn(fluoroacetimidoyl)]HYSSKLYCG-NH2; thioether N-12), the kinact/KI was 26600 M⁻¹ s⁻¹. This compound had a k2 / kinact (each replicate) of 0.0051 s⁻¹. Also, under setting [1], the kinact was determined as 0.0028 s⁻¹. Besides, the kinact under setting [2] was 0.00417 s⁻¹. Besides, under “two-state reaction model”, the affinity corresponds to a Ki of 160 ± 30 nM.
Turning to `N=C(N)NCCC[C@@H]1NC(=O)[C@H](CCCNC(=N)CF)NC(=O)[C@H](CC(=O)O)NC(=O)[C@H](Cc2ccc(O)cc2)NC(=O)[C@H](CCCCN)NC(=O)[C@H](CO)NC(=O)[C@@H](Cc2ccc(O)cc2)NC(=O)CSC[C@@H](C(=O)NCC(N)=O)NC(=O)[C@H](CC(=O)O)NC(=O)[C@H](CCCNC(=N)N)NC(=O)[C@@H]2CCCN2C(=O)[C@H](CO)NC1=O` [cP4_4, ySKYD(2)RSPRDCG] ({CH2CO}-[dY]SKYD[Orn(fluoroacetimidoyl)]RSPRDCG-NH2; thioether N-12), the kinact/KI was 15200 M⁻¹ s⁻¹. This compound also registered a k2 / kinact (each replicate) of 0.0019 s⁻¹. The kinact under setting [1] turned out to be 0.0017 s⁻¹. Besides, the kinact under setting [2] was 0.00183 s⁻¹. The compound also registered a Ki (two-state reaction model) of 120 ± 10 nM.
